# In patent US20260216134A1, “CHARGED PI-CONJUGATED MOLECULES FOR THE TREATMENT OF MICROBIAL INFECTIONS” (priority 2023, published 2026):
# Entries after “also recorded” stand apart in the source; their conditions may differ.
# Columns and labels:
# [1] = test system: MRSA USA300; assay: Therapeutic index calculation (IC50 of mammalian cell lines / MIC); conditions: ratio of average IC50 for A549 and HEK293 to MIC in MRSA USA300
# Description: (§1) The biocompatibility of charged pi-conjugated compounds with mammalian cell lines was evaluated by studying the effects of different charged pi-conjugated compound concentrations on the viability of two mammalian cell lines: A549 (epithelial-like lung cells) and HEK293 (epithelial-like kidney cells). […] Dose-response curves were used to determine IC50 values, that is, the concentration of charged pi-conjugated compound needed to inhibit cell viability by 50%. […] The MIC of MRSA USA300 was used to calculate the therapeutic index. MRSA USA300 is a major contributor to community-associated MRSA infections, including skin and soft tissue infections, bacteraemia, endocarditis, bone and joint infections and nosocomial infections. […]
# (§2) The biocompatibility of charged pi-conjugated compounds with mammalian cell lines was assessed by determining their impact on the mitochondrial activity of human alveolar basal epithelial adenocarcinoma cells (A549) and human embryonic kidney cells (HEK293T) cells, using the Presto Blue assay according to the manufacturer's protocol. […] After 8 h, Presto Blue cell viability reagent (Thermo Fisher Scientific, Waltham, MA, USA) was added to the cells, and after 2 h of incubation, fluorescence was measured using a microplate reader (BioTek Instruments Inc., Winooski, VT, USA). […] The therapeutic index was calculated from the ratio between IC50 and the MIC.
# [2] = test system: HEK293 (epithelial-like kidney cells); assay: Presto Blue viability assay, HEK293; assay type: cell-based, human; conditions: HEK293, Presto Blue, 8 h treatment; read-out: IC50 (concentration needed to inhibit cell viability by 50%)
# Description: as §1, §2
# [3] = test system: A375 tumors; assay: Intratumoral injection into A375 tumors in mice; assay type: in vivo
# Description: Cy7.5-amine was intratumorally injected at the dose of 8 μg (equivalent to 50 μL of 200 μM Cy7.5-amine solution in PBS containing 2.5% DMSO. As control 50 μL of 2.5% DMSO in PBS solution was injected intratumorally. The blue dots indicate the days when the tumors were treated.
# Then we applied Cy7.5-amine (FIG. 22C) by intratumoral injection into A375 tumors as described in FIG. 33.
# [4] = test system: Gram-positive strains; assay: MIC / MIC50 by broth microdilution in panel of Gram-positive strains; assay type: cell-based; conditions: MIC50 over all Gram-positive strains tested (Table 2)
# Description: Antibacterial activity was assessed by determining the minimal inhibitory concentration (MIC) and the minimal bactericidal concentrations (MBC) and by monitoring time-dependent bacterial killing of exponentially growing cells. Bacterial cell suspensions (OD600≈0.02 in cation-adjusted Muller-Hinton Broth) were treated with increasing concentrations of the different molecules. The minimal inhibitory concentration (MIC) was defined as the minimal concentration of the molecule resulting in complete bacterial growth arrest. The minimal bactericidal concentration (MBC) was defined as the lowest concentration of the molecule that killed 99.9% of the inoculum. A molecule was determined to be bactericidal if the ratio of the MBC to the MIC was less than 4 to 6. […] In M. smegmatis, the antibacterial activity of charged pi-conjugated compounds was generally lower.
# The MIC values for all Gram-positive strains tested (Table 2) were used to calculate the MIC50, i.e., the minimum inhibitory concentration needed to inhibit the growth of 50% of the tested isolates (FIG. 5A). […] When the average MIC50 values were evaluated, the most susceptible bacterial genera were Streptococcus sp., followed by Staphylococcus sp. In contrast, Propionibacterium sp. had the highest average MIC50 (FIG. 5B).
# The broth microdilution method was used to determine the MIC of charged pi-conjugated compounds according to the CLSI guidelines. Charged pi-conjugated compound stock solutions (16 mM) were prepared in dimethyl sulfoxide (DMSO). Serial twofold dilutions of the charged pi-conjugated compounds were freshly prepared using the appropriate liquid media (Table 2), and 100 μL of each dilution was added to the appropriate wells of 96-well microtiter plates. The bacterial inoculum was further diluted in liquid media, and 100 μL was added to each well, resulting in a final cell density of ≈5×10^5 CFU mL^−1. […] A molecule was determined to be bactericidal if the ratio of the MBC to the MIC was less than 4 to 6. […]
structure (smiles),measurement,setting,value
"C[N+]1=C(/C=C/C2=CC(=C/C=C3/N(CCCCCC(=O)NCCCCCCN)c4ccc5ccccc5c4C3(C)C)/CCC2)C(C)(C)c2c1ccc1ccccc21.Cl.[Cl-] [Cy7.5-amine, Cyanine 7.5-amine]",therapeutic index,[1],1.3
same,IC50,[2],6.3 µM
same,mice free of cancer,[3]; after 7 months of the study,2 out of 10
same,loss of A375 tumors,"[3]; intratumoral 8 μg (50 μL of 200 μM), n=10 mice",20%
same,toxicity to the mice (body weight relative to control),"[3]; intratumoral 200 μM, control 2.5% DMSO",no sign of toxicity; also recorded: does not cause change of the mice body weight
same,antibacterial activity according to MIC50,[4],strongest antibacterial activity
